Reference: patent publication US9006464B2, “Substituted cyclopentanes having prostaglandin activity” (Allergan, Inc., priority 2007, dated 2015)

Legend:
EP2 [1] = target: T1, EP2 (Homo sapiens, UniProt P43116); assay: EP2 cAMP assay; format: cell-based
Text: (§1) U.S. patent application Ser. No. 11/553,143, filed on Oct. 26, 2006, incorporated by reference herein, describes the methods used to obtain the in vitro data in Table 1 below.

EP2 [2] = target: T1, EP2; assay: EP2 binding (Ki)
Text: as §1

EP2 [3] = target: T1, EP2; assay: EP2 Ca2+ signal assay; format: cell-based
Text: as §1

EP4 [4] = target: T2, EP4 (Homo sapiens, UniProt P35408); assay: EP4 Ca2+ signal assay; format: cell-based
Text: as §1

EP4 [5] = target: T2, EP4; assay: EP4 binding (Ki)
Text: as §1

DP = target: T3, DP (Homo sapiens, UniProt Q13258); assay: Other receptors Ca2+ assay, DP; format: cell-based; conditions: DP receptor
T3 sequence (Q13258 1-359): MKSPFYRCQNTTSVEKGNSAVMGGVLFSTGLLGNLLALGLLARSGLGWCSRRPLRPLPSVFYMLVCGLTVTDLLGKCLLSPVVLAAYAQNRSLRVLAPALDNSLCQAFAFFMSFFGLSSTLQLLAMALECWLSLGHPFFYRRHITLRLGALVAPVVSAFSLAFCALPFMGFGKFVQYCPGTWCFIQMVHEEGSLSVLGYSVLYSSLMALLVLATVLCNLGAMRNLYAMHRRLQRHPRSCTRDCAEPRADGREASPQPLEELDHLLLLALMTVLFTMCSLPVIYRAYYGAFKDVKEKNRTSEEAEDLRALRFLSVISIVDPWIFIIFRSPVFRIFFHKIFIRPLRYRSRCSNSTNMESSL
Text: as §1

EP1 = target: T4, EP1 (Homo sapiens, UniProt P34995); assay: Other receptors Ca2+ assay, EP1; format: cell-based; conditions: EP1 receptor
T4 sequence (P34995 1-402): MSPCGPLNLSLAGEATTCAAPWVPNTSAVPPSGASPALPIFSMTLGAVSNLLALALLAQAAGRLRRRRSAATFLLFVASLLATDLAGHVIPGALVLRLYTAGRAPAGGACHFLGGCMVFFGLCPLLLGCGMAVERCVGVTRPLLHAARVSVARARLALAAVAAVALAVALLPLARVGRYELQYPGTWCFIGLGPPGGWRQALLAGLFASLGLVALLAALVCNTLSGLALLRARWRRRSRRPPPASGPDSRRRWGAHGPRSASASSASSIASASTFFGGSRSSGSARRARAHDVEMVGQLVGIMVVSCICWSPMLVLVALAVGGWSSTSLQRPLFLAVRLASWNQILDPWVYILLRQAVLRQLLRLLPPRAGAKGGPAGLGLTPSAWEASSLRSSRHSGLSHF
Text: as §1

EP3 = target: T5, EP3 (Homo sapiens, UniProt P43115); assay: Other receptors Ca2+ assay, EP3; format: cell-based; conditions: EP3 receptor
T5 sequence (P43115 1-390): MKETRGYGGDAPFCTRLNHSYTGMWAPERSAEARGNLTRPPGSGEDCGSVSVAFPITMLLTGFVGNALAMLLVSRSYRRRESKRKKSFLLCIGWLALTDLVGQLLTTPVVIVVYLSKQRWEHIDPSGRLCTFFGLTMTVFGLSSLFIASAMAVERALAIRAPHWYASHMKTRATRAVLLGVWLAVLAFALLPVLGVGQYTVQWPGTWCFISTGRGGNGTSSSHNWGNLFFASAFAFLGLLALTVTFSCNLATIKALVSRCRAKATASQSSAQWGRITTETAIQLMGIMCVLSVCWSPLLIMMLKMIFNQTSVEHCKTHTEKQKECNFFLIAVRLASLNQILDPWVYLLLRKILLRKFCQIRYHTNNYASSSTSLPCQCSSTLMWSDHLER
Text: as §1

FP = FP (Homo sapiens, UniProt P43088); assay: Other receptors Ca2+ assay, FP; format: cell-based; conditions: FP receptor
Text: as §1

IP = IP (Homo sapiens, UniProt P43119); assay: Other receptors Ca2+ assay, IP; format: cell-based; conditions: IP receptor
Text: as §1

TP = target: T6, TP (Homo sapiens, UniProt P21731); assay: Other receptors Ca2+ assay, TP; format: cell-based; conditions: TP receptor
T6 sequence (P21731 1-343): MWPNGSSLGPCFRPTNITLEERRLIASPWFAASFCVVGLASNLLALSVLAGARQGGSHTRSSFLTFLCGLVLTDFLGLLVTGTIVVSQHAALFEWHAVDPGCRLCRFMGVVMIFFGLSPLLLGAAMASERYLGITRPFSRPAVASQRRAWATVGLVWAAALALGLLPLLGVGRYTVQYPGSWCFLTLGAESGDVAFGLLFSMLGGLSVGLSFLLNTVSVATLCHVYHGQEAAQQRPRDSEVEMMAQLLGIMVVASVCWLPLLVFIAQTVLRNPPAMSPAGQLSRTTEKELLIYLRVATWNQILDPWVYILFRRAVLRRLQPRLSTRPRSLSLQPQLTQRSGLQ
Text: as §1

DOG [6] = assay: Dog intraocular pressure test; format: in vivo
Text: (§2) U.S. Pat. No. 7,091,231, incorporated by reference herein, describes the methods used to obtain the in vivo test results presented in Table 2.

DOG [7] = assay: Dog ocular hyperemia; format: in vivo
Text: as §2

MONKEY = assay: Monkey intraocular pressure test; format: in vivo
Text: as §2

T2 sequence (P35408 whole entry): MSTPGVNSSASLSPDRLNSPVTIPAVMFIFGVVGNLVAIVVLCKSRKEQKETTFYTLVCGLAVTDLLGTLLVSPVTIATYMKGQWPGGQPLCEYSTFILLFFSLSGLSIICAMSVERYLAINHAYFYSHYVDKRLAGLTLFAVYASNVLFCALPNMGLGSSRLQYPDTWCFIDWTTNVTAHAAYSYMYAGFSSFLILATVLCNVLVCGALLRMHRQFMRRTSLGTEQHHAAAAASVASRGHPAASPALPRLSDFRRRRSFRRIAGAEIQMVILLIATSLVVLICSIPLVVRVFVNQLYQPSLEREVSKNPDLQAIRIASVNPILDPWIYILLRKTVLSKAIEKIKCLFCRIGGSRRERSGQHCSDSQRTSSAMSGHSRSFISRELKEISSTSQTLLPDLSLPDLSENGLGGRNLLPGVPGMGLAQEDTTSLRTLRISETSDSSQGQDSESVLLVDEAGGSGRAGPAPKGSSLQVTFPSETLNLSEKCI
T1 sequence (P43116 whole entry): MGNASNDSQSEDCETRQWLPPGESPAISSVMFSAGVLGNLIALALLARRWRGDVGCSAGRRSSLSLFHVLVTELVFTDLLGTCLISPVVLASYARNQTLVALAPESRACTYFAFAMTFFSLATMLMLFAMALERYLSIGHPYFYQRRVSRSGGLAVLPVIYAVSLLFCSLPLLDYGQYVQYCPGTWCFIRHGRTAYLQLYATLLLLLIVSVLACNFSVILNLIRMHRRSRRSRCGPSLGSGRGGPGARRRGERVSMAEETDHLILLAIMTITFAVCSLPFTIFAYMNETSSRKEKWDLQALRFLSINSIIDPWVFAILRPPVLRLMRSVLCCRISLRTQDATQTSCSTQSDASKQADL
Sequence of FP (P43088 whole entry): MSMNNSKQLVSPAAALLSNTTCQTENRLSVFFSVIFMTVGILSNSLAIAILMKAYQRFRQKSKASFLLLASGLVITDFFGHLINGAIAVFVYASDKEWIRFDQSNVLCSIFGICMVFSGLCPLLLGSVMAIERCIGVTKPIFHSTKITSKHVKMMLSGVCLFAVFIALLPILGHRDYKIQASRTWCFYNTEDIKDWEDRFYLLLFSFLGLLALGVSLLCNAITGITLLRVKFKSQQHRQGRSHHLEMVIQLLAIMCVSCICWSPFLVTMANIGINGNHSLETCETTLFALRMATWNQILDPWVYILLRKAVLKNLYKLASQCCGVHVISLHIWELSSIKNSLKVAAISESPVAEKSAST
Sequence of IP (P43119 whole entry): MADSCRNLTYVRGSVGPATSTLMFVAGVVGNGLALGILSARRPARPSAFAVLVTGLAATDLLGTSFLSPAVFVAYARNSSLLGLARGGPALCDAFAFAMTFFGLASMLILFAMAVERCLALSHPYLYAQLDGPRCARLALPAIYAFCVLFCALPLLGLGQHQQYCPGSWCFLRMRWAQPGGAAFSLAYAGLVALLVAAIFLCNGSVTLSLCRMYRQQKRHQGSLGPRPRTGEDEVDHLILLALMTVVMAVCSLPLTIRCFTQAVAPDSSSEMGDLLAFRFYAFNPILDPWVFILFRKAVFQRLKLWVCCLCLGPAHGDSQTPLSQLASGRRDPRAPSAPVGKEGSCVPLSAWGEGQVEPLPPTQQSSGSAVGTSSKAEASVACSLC

| SMILES | EC50 (EP2 [1]) | Ki (EP2 [2]) | EC50 (EP2 [3]) | EC50 (EP4 [4]) | Ki (EP4 [5]) | EC50 (DP) | EC50 (EP1) | EC50 (EP3) | EC50 (FP) | EC50 (IP) | EC50 (TP) | DOG Max. ΔIOP (DOG [6]; Conc. 0.01 g/100 mL) | DOG Max. hyperemia (DOG [7]; Conc. 0.01 g/100 mL) | MONKEY Max. ΔIOP (MONKEY; Conc. 0.01 g/100 mL) | DOG Max. ΔIOP (DOG [6]; Conc. .005% (g/100 mL)) | DOG Max. hyperemia (DOG [7]; Conc. .005% (g/100 mL)) | MONKEY Max. ΔIOP (MONKEY; Conc. .005% (g/100 mL)) |
| --- | --- | --- | --- | --- | --- | --- | --- | --- | --- | --- | --- | --- | --- | --- | --- | --- | --- |
| CCCCCCC[C@@H]1[C@@H](CCCc2ccc(C(=O)O)s2)[C@H](Cl)C[C@H]1O [Entry 3, 5-[3-((1R,2R,3R,5R)-5-Chloro-2-heptyl-3-hydroxy-cyclopentyl)-propyl]-thiophene-2-carboxylic acid] | 0.002 µM | 0.003 µM | 0.067 µM | 7.51 µM | 0.33 µM | 2.25 µM | 3.39 µM | 6.66 µM | ≥ 10 µM | > 10 µM | ≥ 10 µM | – | – | – | – | – | – |
| CCCCCCCC[C@@H]1[C@@H](CCCc2ccc(C(=O)O)s2)[C@H](Cl)C[C@H]1O [Entry 4, 5-[3-((1R,2R,3R,5R)-5-Chloro-3-hydroxy-2-octyl-cyclopentyl)-propyl]-thiophene-2-carboxylic acid] | 0.0004 µM | 0.0005 µM | 0.011 µM | 11.4 µM | 0.395 µM | 6.77 µM | 18.2 µM | 9.53 µM | – | – | – | 40% | 1.3 | 31% | – | – | – |
| CCCCCCCC[C@@H]1[C@@H](CCSc2nc(C(=O)O)cs2)[C@H](Cl)C[C@H]1O [Entry 6-8, 2-(2-((1R,2R,3R,5R)-5-chloro-3-hydroxy-2-octylcyclopentyl)ethylthio)thiazole-4-carboxylic acid] | – | – | – | – | – | – | – | – | – | – | – | – | – | – | 44% | 2.4 | 56% |
| C=CCCCCCC[C@@H]1[C@@H](CCCc2ccc(C(=O)O)s2)[C@H](Cl)C[C@H]1O [Entry 12, 5-[3-((1R,2R,3R,5R)-5-Chloro-3-hydroxy-2-oct-7-enyl-cyclopentyl)-propyl]-thiophene-2-carboxylic acid] | 0.0002 µM | 0.003 µM | 0.007 µM | 6.47 µM | 0.351 µM | 3.21 µM | 0.883 µM | 4.99 µM | 7.57 µM | – | 10.3 µM | – | – | – | – | – | – |
